In EP1226160B1:
Like-named read-outs stand apart in the source and are kept apart here.

Details: amide bond, DMF
[1] = PyBOP/HOBt/NMM, 16.0 h, 17 steps
[2] = PyBOP/HOBt/NMM, 16.0 h, 15 steps

| SMILES | ring closure, yield of all isomers [1] [%] | ring closure, yield of all isomers [2] [%] | further results |
| --- | --- | --- | --- |
| C[C@@H]1NC(=O)CNC(=O)[C@H](CC(N)=O)NC(=O)[C@H](Cc2ccc(O)cc2)NC(=O)[C@@H]2CCCN2C(=O)[C@@H]2C[C@@H](O)CN2C(=O)CNC1=O [cyclo(-Gly-Ala-Gly-Hyp-Pro-Tyr-Asn-)] | 6.2 | – | – |
| C[C@@H]1NC(=O)[C@H](CO)NC(=O)[C@H](C)NC(=O)[C@H](Cc2ccc(O)cc2)NC(=O)[C@H](CC(N)=O)NC(=O)CNC1=O [cyclo(-Tyr-Ala-Ser-Ala-Gly-Asn-)] | – | 4.3 | – |
| NC(=O)C[C@@H]1NC(=O)CNC(=O)[C@H](Cc2ccc(O)cc2)NC(=O)[C@H](CC(N)=O)NC(=O)CNC(=O)[C@H](Cc2ccc(O)cc2)NC1=O [cyclo(-Tyr-Gly-Asn-Tyr-Gly-Asn-)] | – | – | ring closure, yield of all isomers (PyBOP, 16 steps): 14% |
| C[C@@H]1NC(=O)CNC(=O)[C@@H]2C[C@@H](O)CN2C(=O)[C@@H]2CCCN2C(=O)[C@H](Cc2ccc(O)cc2)NC(=O)[C@H](CC(N)=O)NC(=O)CNC1=O [Cyclo(Tyr-Pro-4Hyp-Gly-Ala-Gly-Asn)] | 7 | – | – |
| C[C@@H]1NC(=O)CNC(=O)[C@H](CCC(N)=O)NC(=O)[C@H](Cc2ccc(O)cc2)NC(=O)[C@@H]2CCCN2C(=O)[C@@H]2C[C@@H](O)CN2C(=O)CNC1=O [cyclo(-Gly-Ala-Gly-Hyp-Pro-Tyr-Gln-)] | 6.6 | – | – |
| C[C@@H]1NC(=O)CNC(=O)[C@@H]2C[C@@H](O)CN2C(=O)[C@@H]2CCCN2C(=O)[C@H](Cc2ccc(O)cc2)NC(=O)[C@H](CC(N)=O)NC1=O [Cyclo(Tyr-Pro-4Hyp-Gly-Ala-Asn)] | – | 4.4 | – |
